Reference: ChEMBL document CHEMBL5370624 (J Med Chem, 2023)
Calls of active or inactive are those of the source. The calls are words filed in the database; no cut-off is given here.

Experiments:
[1] = target: T1, Toll-like receptor 4 (Homo sapiens, UniProt O00206); test: Agonist activity at TLR4 in human PBMC cells assessed as induction of MIP-1beta release incubated for 20 hrs by ELISA; type: cell-based
[2] = target: T1, Toll-like receptor 4; test: Agonist activity at human TLR4 in human HEK-Blue hTLR4 cells assessed as NF-kappaB activation incubated for 48 hrs by SEAP reporter gene based Quanti-blue assay; type: cell-based
[3] = target: T1, Toll-like receptor 4; test: Agonist activity at TLR4 in human PBMC cells assessed as induction of IL-1beta release incubated for 20 hrs by ELISA; type: cell-based
[4] = target: T1, Toll-like receptor 4; test: Agonist activity at TLR4 in human PBMC cells assessed as induction of TNFalpha release incubated for 20 hrs by ELISA; type: cell-based
[5] = Aqueous stability of the compound assessed as drug degradation at 40 degreeC and measured upto 12 months by LC-MS analysis; type: physicochemical; conditions: for Stability: buffer, 8760 h
[6] = Aqueous stability of the compound assessed as drug degradation at 2 to 8 degreeC and measured upto 12 months by LC-MS analysis; type: physicochemical; conditions: buffer, 8760 h
[7] = Aqueous stability of the compound assessed as drug degradation at 2 to 8 degreeC and measured upto 12 months by RP-HPLC analysis; type: physicochemical; conditions: buffer, 8760 h
[8] = target: T1, Toll-like receptor 4; test: Agonist activity at TLR4 in human MONO-MAC-6 cells assessed as induction of MIP-1beta release incubated for 24 hrs by ELISA; type: cell-based
[9] = target: T2, Toll-like receptor 4 (Mus musculus, UniProt Q9QUK6); test: Agonist activity at mouse TLR4 in human HEK-Blue mTLR4 cells assessed as NF-kappaB activation incubated for 48 hrs by SEAP reporter gene based Quanti-blue assay; type: cell-based
T2 sequence (Q9QUK6 whole entry): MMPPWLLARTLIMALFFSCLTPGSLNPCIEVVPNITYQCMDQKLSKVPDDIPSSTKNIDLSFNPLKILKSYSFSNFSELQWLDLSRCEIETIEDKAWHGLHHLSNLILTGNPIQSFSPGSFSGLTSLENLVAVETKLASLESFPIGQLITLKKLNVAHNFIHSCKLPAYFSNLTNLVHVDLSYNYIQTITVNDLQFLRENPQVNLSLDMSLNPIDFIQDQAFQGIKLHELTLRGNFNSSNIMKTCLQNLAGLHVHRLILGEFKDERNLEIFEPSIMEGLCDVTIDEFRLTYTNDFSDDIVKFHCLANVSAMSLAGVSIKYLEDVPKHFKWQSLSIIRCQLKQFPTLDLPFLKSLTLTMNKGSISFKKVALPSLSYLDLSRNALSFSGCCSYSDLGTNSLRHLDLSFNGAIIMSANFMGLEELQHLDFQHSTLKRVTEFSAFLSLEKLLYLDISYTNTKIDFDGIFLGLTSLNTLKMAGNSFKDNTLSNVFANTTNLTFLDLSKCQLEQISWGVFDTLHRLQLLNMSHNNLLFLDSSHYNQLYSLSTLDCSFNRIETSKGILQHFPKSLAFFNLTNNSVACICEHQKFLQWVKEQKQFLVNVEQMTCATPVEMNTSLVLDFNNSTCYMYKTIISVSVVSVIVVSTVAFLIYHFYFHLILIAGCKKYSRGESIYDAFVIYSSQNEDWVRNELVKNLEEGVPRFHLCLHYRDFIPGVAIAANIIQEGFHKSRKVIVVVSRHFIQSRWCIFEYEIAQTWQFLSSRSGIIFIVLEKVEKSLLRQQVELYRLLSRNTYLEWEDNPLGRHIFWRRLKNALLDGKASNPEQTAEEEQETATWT

[10] = target: T2, Toll-like receptor 4; test: Agonist activity at TLR4 in mouse RAW264.7 cells assessed as induction of MIP-1beta release incubated for 24 hrs by ELISA; type: cell-based
[11] = target: T1, Toll-like receptor 4; test: Agonist activity at TLR4 in human PBMC cells assessed as induction of RANTES release incubated for 20 hrs by ELISA; type: cell-based
[12] = Aqueous stability of the compound assessed as drug degradation at 2 to 8 degreeC and measured after 1 month by LC-MS analysis; type: physicochemical; conditions: buffer, 730 h; time 1 months
[13] = system: PBMC; test: Cytotoxicity against human PBMC cells assessed as reduction in cell viability upto 10 ug/ml incubated for 18 to 24 hrs by PrestoBlue reagent based assay; type: toxicity; conditions: time 18-24 hrs, dose < 10 µg/ml
[14] = Toxicity in H3N2-A/HK/68 influenza virus-immunized BALB/c mouse model assessed as change in body temperature at 1 to 10 ug,INH administered 48hrs prior to influenza challenge and measured after 18 days; conditions: in vivo, inhaled_or_intranasal, 432 h, dose 1-10 µg, time 18 day
[15] = Toxicity in H3N2-split A/Victoria/210/2009 influenza virus-immunized BALB/c mouse model assessed as abnormality at 0.001 to 0.1 ug,IM administered on day 0 and 14 and measured after 28 days; conditions: in vivo, 672 h, dose 0.001-0.1 µg, time 28 day
[16] = Toxicity in H3N2-A/HK/68 influenza virus-immunized BALB/c mouse model assessed as disease index at 1 to 10 ug,INH administered 48hrs prior to influenza challenge and measured after 18 days; conditions: in vivo, inhaled_or_intranasal, 432 h, dose 1-10 µg, time 18 day
[17] = system: Mus musculus; test: Immuno-adjuvant activity in H3N2-A/HK/68 influenza virus-immunized BALB/c mouse model assessed as increase in survival rate at 1 ug,INH administered 48hrs prior to influenza challenge and measured after 18 days; type: functional; conditions: dose 1 µg, time 18 day
[18] = system: Mus musculus; test: Immuno-adjuvant activity in H3N2-split A/Victoria/210/2009 influenza virus-immunized BALB/c mouse model assessed as increase in influenza specific serum IgG2a titer level at 0.001 to 0.1 ug,IM administered on day 0 and 14 and measured after 28 days by ELISA; type: functional, organism-based; conditions: dose 0.001-0.1 µg, time 28.0 day
[19] = species on record: Mus musculus; test: Immuno-adjuvant activity in H3N2-split A/Victoria/210/2009 influenza virus-immunized BALB/c mouse model assessed as increase in influenza specific serum IgG titer level at 0.001 to 0.1 ug,IM and measured after 14 days by ELISA; type: functional, organism-based; conditions: dose 0.001-0.1 µg, time 14.0 day
[20] = Toxicity in H3N2-A/HK/68 influenza virus-immunized BALB/c mouse model assessed as body weight change at 1 to 10 ug,INH administered 48hrs prior to influenza challenge and measured after 18 days; conditions: in vivo, inhaled_or_intranasal, 432 h, dose 1-10 µg, time 18 day
[21] = species on record: Mus musculus; test: Immuno-adjuvant activity in H3N2-split A/Victoria/210/2009 influenza virus-immunized BALB/c mouse model assessed as increase in influenza specific serum IgG2a titer level at 0.001 to 0.1 ug,IM and measured after 14 days by ELISA; type: functional, organism-based; conditions: dose 0.001-0.1 µg, time 14.0 day
[22] = species on record: Mus musculus; test: Immuno-adjuvant activity in H3N2-split A/Victoria/210/2009 influenza virus-immunized BALB/c mouse model assessed as increase in influenza specific serum IgG1 titer level at 0.001 to 0.1 ug,IM and measured after 14 days by ELISA; type: functional, organism-based; conditions: dose 0.001-0.1 µg, time 14.0 day
[23] = Toxicity in H3N2-split A/Victoria/210/2009 influenza virus-immunized BALB/c mouse model assessed as reactogenicity at 0.001 to 0.1 ug,IM administered on day 0 and 14 and measured after 28 days; conditions: in vivo, 672 h, dose 0.001-0.1 µg, time 28 day
[24] = system: Mus musculus; test: Immuno-adjuvant activity in H3N2-split A/Victoria/210/2009 influenza virus-immunized BALB/c mouse model assessed as increase in influenza specific serum IgG1 titer level at 0.001 to 0.1 ug,IM administered on day 0 and 14 and measured after 28 days by ELISA; type: functional, organism-based; conditions: dose 0.001-0.1 µg, time 28.0 day
[25] = system: Mus musculus; test: Immuno-adjuvant activity in H3N2-split A/Victoria/210/2009 influenza virus-immunized BALB/c mouse model assessed as increase in influenza specific serum IgG titer level at 0.001 to 0.1 ug,IM administered on day 0 and 14 and measured after 28 days by ELISA; type: functional, organism-based; conditions: dose 0.001-0.1 µg, time 28.0 day
[26] = system: Mus musculus; test: Immuno-adjuvant activity in H3N2-A/HK/68 influenza virus-immunized BALB/c mouse model assessed as increase in survival rate at 10 ug,INH administered 48hrs prior to influenza challenge and measured after 18 days; type: functional; conditions: dose 10 µg, time 18 day
[27] = Aqueous stability of the compound assessed as drug degradation at 40 degreeC and measured after 12 months by RP-HPLC analysis; type: physicochemical; conditions: aqueous solution, read-out: Drug degradation

T1 sequence (O00206 whole entry): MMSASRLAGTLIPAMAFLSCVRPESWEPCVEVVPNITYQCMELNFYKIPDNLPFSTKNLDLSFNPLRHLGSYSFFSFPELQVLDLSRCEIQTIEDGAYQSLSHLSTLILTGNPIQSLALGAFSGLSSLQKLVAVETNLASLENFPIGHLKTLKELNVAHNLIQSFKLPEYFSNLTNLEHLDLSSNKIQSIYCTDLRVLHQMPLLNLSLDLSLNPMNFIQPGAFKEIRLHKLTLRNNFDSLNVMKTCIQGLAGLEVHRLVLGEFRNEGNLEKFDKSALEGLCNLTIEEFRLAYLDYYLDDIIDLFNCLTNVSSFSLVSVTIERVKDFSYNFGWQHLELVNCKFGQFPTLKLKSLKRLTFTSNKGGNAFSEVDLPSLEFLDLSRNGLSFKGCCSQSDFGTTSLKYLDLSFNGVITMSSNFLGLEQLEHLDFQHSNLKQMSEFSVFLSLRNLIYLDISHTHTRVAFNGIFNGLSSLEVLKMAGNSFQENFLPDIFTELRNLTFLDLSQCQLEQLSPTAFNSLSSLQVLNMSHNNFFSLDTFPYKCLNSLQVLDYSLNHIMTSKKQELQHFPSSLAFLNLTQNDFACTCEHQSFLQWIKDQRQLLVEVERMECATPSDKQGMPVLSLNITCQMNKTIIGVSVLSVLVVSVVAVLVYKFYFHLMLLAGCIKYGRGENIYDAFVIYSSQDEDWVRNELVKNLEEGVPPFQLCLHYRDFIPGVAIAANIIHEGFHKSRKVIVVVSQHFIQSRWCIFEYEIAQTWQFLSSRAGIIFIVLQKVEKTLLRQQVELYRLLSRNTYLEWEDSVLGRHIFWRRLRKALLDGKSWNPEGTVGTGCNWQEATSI

Row | SMILES | EC50 [1] | EC50 [2] | EC50 [3] | EC50 [4] | Stability [5] | Stability [6] | Stability [7] | EC50 [8] | EC50 [9] | EC50 [10] | EC50 [11] | Activity [15] | Activity [18] | Activity [19] | Activity [22] | Activity [23] | Activity [24] | Activity [25] | other results
1 | CCCCCCCCCCC[C@H](CC(=O)NCCO[C@@H]1O[C@H](CO)[C@@H](OP(=O)(O)O)[C@@H](NC(=O)C[C@@H](CCCCCCCCCCC)OC(=O)CCCCCCCCC)[C@H]1NC(=O)C[C@@H](CCCCCCCCCCC)OC(=O)CCCCCCCCC)OC(=O)CCCCCCCCC.CCN(CC)CC | 1.61 nM | 91.9 nM | 8.77 nM | 28 nM | Stable | Stable | Stable | 1.65 nM | 0.37 nM | 0.26 nM | 3.68 nM |  |  |  |  |  |  |  | 
2 | CCCCCCCCCCCCCC(=O)O[C@H](CCCCCCCCCCC)CC(=O)O[C@@H]1[C@@H](NC(=O)C[C@H](CCCCCCCCCCC)OC(=O)CCCCCCCCCCCCC)[C@H](OC[C@H]2O[C@H](O)[C@H](NC(=O)C[C@H](O)CCCCCCCCCCC)[C@@H](OC(=O)C[C@H](O)CCCCCCCCCCC)[C@@H]2O)O[C@H](CO)[C@H]1OP(=O)(O)O | 0.76 nM | 6.23 nM | 2.11 nM | 10.4 nM |  |  |  | 0.99 nM | 1.4 nM | 0.49 nM | 1.92 nM |  |  |  |  |  |  |  | 
3 | CCCCCCCCCCC[C@H](CC(=O)NCCO[C@@H]1O[C@H](CO)[C@@H](OP(=O)(O)O)[C@H](OC(=O)C[C@@H](CCCCCCCCCCC)OC(=O)CCCCCCCCC)[C@H]1NC(=O)C[C@@H](CCCCCCCCCCC)OC(=O)CCCCCCCCC)OC(=O)CCCCCCCCC | 1.94 nM | 173 nM | 2.62 nM | 53.7 nM |  |  |  | 6.75 nM | 0.43 nM | 0.48 nM | 1.26 nM |  |  |  |  |  |  |  | Stability [12]: Stable
4 | CCCCCCCCCCC[C@H](CC(=O)N[C@H]1[C@H](OC[C@H](NC(=O)C[C@@H](CCCCCCCCCCC)OC(=O)CCCCCCCCC)C(=O)O)O[C@H](CO)[C@@H](OP(=O)(O)O)[C@@H]1OC(=O)C[C@@H](CCCCCCCCCCC)OC(=O)CCCCCCCCC)OC(=O)CCCCCCCCC |  |  |  |  |  |  |  |  |  |  |  |  |  |  |  |  |  |  | Activity [13]: Non-Toxic
5 | CCCCCCCCCCC[C@H](CC(=O)N[C@H]1[C@H](OC[C@H](NC(=O)C[C@@H](CCCCCCCCCCC)OCCCCCCCCCC)C(=O)O)O[C@H](CO)[C@@H](OP(=O)(O)O)[C@H]1NC(=O)C[C@@H](CCCCCCCCCCC)OCCCCCCCCCC)OCCCCCCCCCC.CCN(CC)CC | 0.13 nM | 7.86 nM | 0.28 nM | 2.6 nM | Stable | Stable | Stable | 0.38 nM | 0.15 nM | 0.02 nM | 0.14 nM | Non-Toxic | Active | Dose-Dependent Effect | Dose-Dependent Effect | Non-Toxic | Active | Active | Activity [13]: Non-Toxic; Activity [14]: Non-Toxic; Activity [16]: Non-Toxic; Survival [17]: 40%; Activity [20]: Non-Toxic; Activity [21]: Dose-Dependent Effect; Survival [26]: 80%
6 | CCCCCCCCCCC[C@H](CC(=O)N[C@H]1[C@H](OC[C@H](NC(=O)C[C@@H](CCCCCCCCCCC)OCCCCCCCCCC)C(=O)O)O[C@H](CO)[C@@H](OS(=O)(=O)O)[C@H]1NC(=O)C[C@@H](CCCCCCCCCCC)OCCCCCCCCCC)OCCCCCCCCCC.CCN(CC)CC | 0.24 nM | 26.3 nM | 0.97 nM | 6.88 nM | Stable | Stable | Stable | 0.65 nM | 0.68 nM | 0.04 nM | 0.46 nM | Non-Toxic | Active | Dose-Dependent Effect | Dose-Dependent Effect | Non-Toxic | Active | Active | 
7 | CCCCCCCCCCCCCCCC(=O)O[C@H](CCCCCCCCCCC)CC(=O)N[C@@H]1[C@@H](O)[C@H](O)[C@@H](CO[C@@H]2O[C@H](CO)[C@@H](OP(=O)(O)O)[C@H](OC(=O)C[C@@H](CCCCCCCCCCC)OC(=O)CCCCCCCCCCCCC)[C@H]2NC(=O)C[C@@H](CCCCCCCCCCC)OC(=O)CCCCCCCCCCC)O[C@@H]1O | 23.7 nM | 246 nM | 42.4 nM | 200 nM |  |  |  | 6.37 nM | 6.54 nM | 3.73 nM | 31.5 nM |  |  |  |  |  |  |  | 
8 | CCCCCCCCCCC[C@H](CC(=O)NCCO[C@@H]1O[C@H](CO)[C@@H](OS(=O)(=O)O)[C@@H](NC(=O)C[C@@H](CCCCCCCCCCC)OC(=O)CCCCCCCCC)[C@H]1NC(=O)C[C@@H](CCCCCCCCCCC)OC(=O)CCCCCCCCC)OC(=O)CCCCCCCCC.CCN(CC)CC | 2.87 nM | 449 nM | 20.4 nM | 116 nM |  | Stable | Stable | 39.5 nM | 2.64 nM | 0.31 nM | 7.01 nM | Non-Toxic | Active | Dose-Dependent Effect | Dose-Dependent Effect | Non-Toxic | Active | Active | degraded at 8760 h ([5]; aqueous solution, read-out: Drug degradation): 8%; Activity [21]: Dose-Dependent Effect; degraded at 8760 h [27]: < 10%
